Read-outs that look alike come from different tables or passages of the source.
How the values were obtained:
[1] = biological target: T1, heparanase (Homo sapiens, UniProt Q9Y251); assay: Heparanase inhibition in an enzymatic system (degradation of fondaparinux, residual anti-factor Xa activity); assay type: biochemical
T1 sequence (Q9Y251 36-543): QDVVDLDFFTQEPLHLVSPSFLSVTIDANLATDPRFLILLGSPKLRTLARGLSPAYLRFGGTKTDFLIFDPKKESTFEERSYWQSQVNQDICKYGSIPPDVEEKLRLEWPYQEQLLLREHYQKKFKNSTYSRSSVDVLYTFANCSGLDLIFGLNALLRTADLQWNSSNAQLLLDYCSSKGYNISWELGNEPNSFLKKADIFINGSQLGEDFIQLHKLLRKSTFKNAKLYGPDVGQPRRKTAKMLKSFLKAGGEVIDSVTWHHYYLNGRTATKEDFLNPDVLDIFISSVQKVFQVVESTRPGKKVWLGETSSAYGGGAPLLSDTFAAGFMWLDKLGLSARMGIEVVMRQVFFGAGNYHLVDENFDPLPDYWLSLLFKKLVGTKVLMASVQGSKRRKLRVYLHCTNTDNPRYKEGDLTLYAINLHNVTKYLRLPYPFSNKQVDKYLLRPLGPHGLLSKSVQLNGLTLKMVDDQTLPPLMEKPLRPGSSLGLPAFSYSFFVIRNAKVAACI
Procedure: The concentration of fondaparinux is determined by virtue of its anti-factor Xa activity.
The heparanase is produced by Sanofi-Synthélabo (Labège, France). The reagents for assaying factor Xa are sold by Chromogénix (Montpellier, France).
Increasing concentrations of a compound according to the invention, heparanase inhibitor ([…]), are mixed with a fixed concentration of heparanase (for each batch, preliminary experiments make it possible to determine the enzymatic activity sufficient for degradation of 0.45 μg/ml of fondaparinux added). After 5 minutes at 37° C., the mixture is brought into contact with the fondaparinux and left at 37° C. for 1 hour. The reaction is stopped by heating at 95° C. for 5 minutes. The residual fondaparinux concentration is finally measured by adding factor Xa and its specific chromogenic substrate (Ref. S2222).
50 μl of sodium acetate buffer (0.2 M, pH 4.2) are mixed with 50 μl of fondaparinux (0.45 μg/ml) and 59 μl of a heparanase solution. The mixture is incubated for 1 hour at 37° C. and then for 5 minutes at 95° C. The pH thus goes from 4.2 to 7. 100 μl of the reaction mixture are then mixed with 50 μl of 50 mM Tris buffer containing 175 mM NaCl and 75 mM EDTA, […]. The anti-factor Xa activity of the fondaparinux is measured in the following way:
100 μl of the solution obtained in step a) are mixed with 100 μl of AT (0.5 μg/ml). The mixture is kept at 37° C. for 2 minutes and 100 μl of factor Xa (7 nkat/ml) are then added. The mixture is kept at 37° C. for 2 minutes and 100 μl of chromogenic substrate (Ref.: S2222) (1 mM) are then added. The mixture is kept at 37° C. for 2 minutes and then 100 μl of acetic acid (50%) are added. The optical density is read at 405 nm. A percentage inhibition is determined relative to the control without inhibitor. A percentage inhibition curve makes it possible to calculate an IC50.

[2] = biological target: ATIII (Homo sapiens, UniProt P01008); assay: Affinity for ATIII; assay type: binding
ATIII, sequence (P01008 33-464, species assumed): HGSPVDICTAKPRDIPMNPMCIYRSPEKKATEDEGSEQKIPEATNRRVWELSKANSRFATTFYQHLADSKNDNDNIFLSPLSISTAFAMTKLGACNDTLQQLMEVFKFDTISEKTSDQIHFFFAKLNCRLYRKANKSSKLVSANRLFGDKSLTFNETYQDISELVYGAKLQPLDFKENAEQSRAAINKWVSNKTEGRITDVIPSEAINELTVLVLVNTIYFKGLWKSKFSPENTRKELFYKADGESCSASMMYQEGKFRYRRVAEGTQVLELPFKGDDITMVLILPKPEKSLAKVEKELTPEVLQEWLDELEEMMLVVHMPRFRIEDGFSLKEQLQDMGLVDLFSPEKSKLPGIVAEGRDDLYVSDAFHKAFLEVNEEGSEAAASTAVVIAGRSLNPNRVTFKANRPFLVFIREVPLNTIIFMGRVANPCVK

[3] = Anti-thrombotic activity
[4] = biological target: T2, heparanase isolated from human peripheral blood leukocytes (PMN supernatant) (Homo sapiens, UniProt Q9Y251); assay: Heparanase degradation of 35-S-labelled heparan sulphate proteoglycan, gel permeation chromatography and scintillation counting; assay type: biochemical
T2 construct: The supernatants containing the heparanase are then collected; from tissue; host or cells: human peripheral blood leukocytes (buffy coats) enriched in PMNs; cell supernatant
T2 sequence (Q9Y251 36-543): T1 sequence (Q9Y251 36-543)
Excerpt: Radiolabelled heparin/heparan sulphate (HS) is degraded with heparanases, producing low molecular weight HS fragments which can be measured by gel permeation chromatography (FPLC) and counting of the collected fractions by liquid scintillation.
A uterine fibroblast cell line was used to prepare heparan sulphate (proteoglycan) labelled with 35-S by metabolic labelling. It has been shown that this cell line produces relatively large amounts of various heparan sulphate proteoglycans (HS-PGs), such as syndecans and glypican (Drzeniek et al., Blood 93:2884-2897, 1999).
The labelling is carried out by incubating the cells, with a cell density of approximately 1×10^6 cells/ml, in the presence of 35-S-sulphate at 33 μCi/ml in the tissue culture medium for 24 hours. The supernatants are then collected and a protease inhibitor, PMSF (phenylmethylsulfonyl fluoride) (1 mmol/l), is added. […]
200 μl of 35-S-labelled heparan sulphate (proteoglycans) adjusted to approximately 2200 cpm/ml (cpm=counts per minute) are incubated at 37° C. for 18 hours with 1 μl of PMN supernatant containing the heparanase. 200 μl of the mixture obtained above are sampled on a TSK 4000 gel permeation chromatography column (FPLC), and the fractions are collected and analyzed by liquid scintillation counting.
The degradation was measured according to the following formula: […]
For example, the percentage degradation is calculated as follows: the sum of the counts (cpm) in fractions 20-33 of the sample after treatment with the heparanase, minus the background noise count (cpm) (fractions 20-33) of the control sample, is divided by the total counts (fractions 12-33) applied to the column. […] A correction for the sulphatase activity is not necessary since no sulphatase activity could be detected.
The following heparanase inhibitors: unfractionated heparin (UF-H) and Hexa Iso ATIII were assayed via the protocol described above at three different concentrations. […] The data are expressed as percentage inhibition of the heparanase activity. […]

[5] = Stability in alkaline medium / physicochemical properties; details: loses 3-O-sulphated terminal glucosamine, converted to pentasaccharide ΔIs-IIaid-GlcA as soon as pH exceeds 8
Procedure: The depolymerization of the heparin takes place under the following conditions: 3 g of heparin from porcine mucous are dissolved in 30 ml of a solution of 0.2M NaCl, 0.02% BSA, 5 mM Na2HPO4, adjusted to pH 7. The depolymerization temperature is 16° C. 2 IU of heparinase 1 are initially introduced. After 7 days, an additional unit of heparinase 1 is added. After 15 days, the heparin depolymerization is considered to be finished. The reaction is monitored either by analytical […] on a TSK Super SW 2000 column (FIG. 1), or on a CTA-SAX column (FIG. 2a). The enzyme reaction may be considered to be sufficiently advanced when the proportion of oligosaccharides greater than octasaccharide in size is limited and when the two main sulphated hexasaccharides ΔIs-Isid-Isid and ΔIs-Isid-IIsglu in the mixture have been depolymerized to tetrasaccharides. When the enzyme reaction has finished, the solution is filtered through a 0.2 μm membrane and then injected, in 2 stages, onto a GC column filled with Biogel P10 (Bio Rad), in which a 0.2 N NaCl mobile phase circulates (FIG. 3). […] It is therefore very important to slightly acidify (pH between 5 and 6) the entire hexasaccharide fraction.

[6] = Petitou et al., J. Biol. Chem. (1988); sodium salt; cited from earlier work

In the case of ΔIs-IIaid-IIsglu [Hexa Iso ATIII], the “% inhibition” value ([1]; Concentration 3.00E−5 M) is reported as 48.5%, the “affinity for ATIII” value [2] is reported as “no affinity for ATIII” and the anti-thrombotic activity [3] is reported as “devoid of anti-thrombotic activity”. The “heparanase-inhibiting activity (conclusion in words)” value [4] was “strong heparanase-inhibiting activity”, the “heparanase-inhibiting activity (conclusion in words)” value ([4]; listed as hexasaccharide Iso ATIII) was “very good heparanase inhibitor” and the “dose dependence of heparanase inhibition” value ([4]; three concentrations, FIG. 2 / FIG. 7) was “dose-dependant inhibition”. For the same substance, the “stability in alkaline medium” value [5] was “extremely fragile in alkaline medium” and the anti-thrombotic activity [6] was “no anti-thrombotic activity”.

With ΔIs-IIa-IIs [(Ia)] the “% inhibition” value ([1]; Concentration 1.00E−4 M) was 53.8%.

With ΔIs-Is-Is-IIa-IIs [(If)] the “% inhibition” value ([1]; Concentration 3.00E−6 M) was 58.4%.

For ΔIs-Is-Is-IIs [(Ie)], the “% inhibition” value ([1]; Concentration 3.00E−5 M) was 59.1%.

With ΔIs-Ia-IIs [(Im)] the “% inhibition” value ([1]; Concentration 3.00E−5 M) was 54.1%.

With ΔIs-Is-Is-Ia-IIs [(Ih)] the “% inhibition” value ([1]; Concentration 3.00E−5 M) was 55.5%.

With ΔIs-Is-Ia-IIs [(Id)] the “% inhibition” value ([1]; Concentration 3.00E−5 M) was 53.9%.

With ΔIs-Is-IIa-IIs [(Ic)] the “% inhibition” value ([1]; Concentration 3.00E−6 M) was 59.2%.

For ΔIs-Is-Is-IIa-IIs [(Ig)], the “% inhibition” value ([1]; Concentration 1.00E−4 M) was 55.8%.

With ΔIs-Is-IIa-IIs [(Ib)] the “% inhibition” value ([1]; Concentration 1.00E−5 M) was 59.9%.

For ΔIs-Is-Is-Is-IIs [(Ij)], the “% inhibition” value ([1]; Concentration 3.00E−5 M) was 48.4%.

— patent US20100249061A1, “OLIGOSACCHARIDES, PREPARATION METHOD AND USE THEREOF, AND PHARMACEUTICAL COMPOSITIONS CONTAINING SAME” (Aventis Pharma S.A., priority 2004, published 2010)
